Data on nine compounds can be found in US11446287B2, “Compounds and methods for EP300 or CBP modulation and indications therefor” (Opna Immuno-Oncology SA, priority 2019, dated 2022).

The target of this assay is T1, Recombinant human EP300 containing the bromodomain (EP300-BD (1040-1161)) (Homo sapiens, UniProt Q09472).
T1 construct: Recombinant human EP300 bromodomain (EP300-BD (1040-1161)); made in house; host or cells: E. coli BL21-CodonPlus (DE3), modified pET vector
T1 sequence (Q09472 1040-1161): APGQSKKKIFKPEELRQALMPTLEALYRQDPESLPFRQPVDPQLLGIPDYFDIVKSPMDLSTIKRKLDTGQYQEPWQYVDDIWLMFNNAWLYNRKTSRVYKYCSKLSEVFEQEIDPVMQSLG
As to the kind of experiment: EP300 Alphascreen binding assay. The method, boiled down:
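Displacement of a biotinylated acetyl-K56 histone H3 peptide from the N-His bromodomain construct (1040-1161) measured by AlphaScreen proximity, beads at 7.5 μg/ml final, read 60 min after addition. Protein, peptide and compound first incubated 1 h at room temperature, pH 7.5 HEPES buffer; IC50 by four-parameter logistic fit.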
By IC50 is commonly meant the point on the concentration scale where inhibition reaches its midpoint. As for `Cc1noc(C)c1-c1cnc2c(c1)c(-c1c(Cl)cc(C(=O)O)cc1OC(F)(F)F)cn2-c1ccc(C2CC2)nc1` [P-0441, 3-chloro-4-(1-(6-cyclopropylpyridin-3-yl)-5-(3,5-dimethylisoxazol-4-yl)-1H-pyrrolo[2,3-b]pyridin-3-yl)-5-(trifluoromethoxy)benzoic acid], the concentration for half-maximal inhibition (IC50) lay in the range of 0.1 to 1000 nM.

With `CCOc1cc(C(=O)O)c(F)cc1-c1cn(C2CCN(C(=O)OC(C)(C)C)CC2)c2ncc(-c3c(C)noc3C)cc12` [P-0442, 4-(1-(1-(tert-butoxycarbonyl)piperidin-4-yl)-5-(3,5-dimethylisoxazol-4-yl)-1H-pyrrolo[2,3-b]pyridin-3-yl)-5-ethoxy-2-fluorobenzoic acid], the IC50 is 0.1 to 1000 nM.

With `COc1ccc(CC(=O)O)cc1-c1cn(-c2ccc(F)cc2F)c2ncc(-c3c(C)noc3C)cc12` [P-0443, 2-(3-(1-(2,4-difluorophenyl)-5-(3,5-dimethylisoxazol-4-yl)-1H-pyrrolo[2,3-b]pyridin-3-yl)-4-methoxyphenyl)acetic acid], the concentration for half-maximal inhibition (IC50) was in the range of 0.1 to 1000 nM.

As for `Cc1noc(C)c1-c1cnc2c(c1)c(-c1cc(F)c(C(=O)O)cc1OC(F)(F)F)cn2-c1ccc(C2CC2)nc1` [P-0444, 4-(1-(6-cyclopropylpyridin-3-yl)-5-(3,5-dimethylisoxazol-4-yl)-1H-pyrrolo[2,3-b]pyridin-3-yl)-2-fluoro-5-(trifluoromethoxy)benzoic acid], the IC50 lay within 0.1 to 1000 nM.

Consider `CCOc1cc(C(=O)O)c(F)cc1-c1cn(C2CCN(C(=O)C(C)(C)C)CC2)c2ncc(-c3c(C)noc3C)cc12` [P-0445, 4-(5-(3,5-dimethylisoxazol-4-yl)-1-(1-pivaloylpiperidin-4-yl)-1H-pyrrolo[2,3-b]pyridin-3-yl)-5-ethoxy-2-fluorobenzoic acid], for which the 50% inhibitory concentration (IC50) was in the range of 0.1 to 1000 nM.

In the case of `CCOc1cc(C(=O)O)c(F)cc1-c1cn(C2CCN(CCC#N)CC2)c2ncc(-c3c(C)noc3C)cc12` [P-0446, 4-(1-(1-(2-cyanoethyl)piperidin-4-yl)-5-(3,5-dimethylisoxazol-4-yl)-1H-pyrrolo[2,3-b]pyridin-3-yl)-5-ethoxy-2-fluorobenzoic acid], the IC50 is 0.1 to 1000 nM.

`CCOc1cc(C(=O)O)c(F)cc1-c1cn(C2CCN(C(=O)CO)CC2)c2ncc(-c3c(C)noc3C)cc12` [P-0447, 4-(5-(3,5-dimethylisoxazol-4-yl)-1-(1-(2-hydroxyacetyl)piperidin-4-yl)-1H-pyrrolo[2,3-b]pyridin-3-yl)-5-ethoxy-2-fluorobenzoic acid]: the IC50 was in the range of 0.1 to 1000 nM.

On to `CCc1onc(C)c1-c1cnc2c(c1)c(-c1c(Cl)cc(C(=O)O)cc1OC(F)(F)F)cn2-c1ccc(C2CC2)nc1` [P-0448, 3-chloro-4-(1-(6-cyclopropylpyridin-3-yl)-5-(5-ethyl-3-methylisoxazol-4-yl)-1H-pyrrolo[2,3-b]pyridin-3-yl)-5-(trifluoromethoxy)benzoic acid], for which the IC50 was 0.1 to 1000 nM.

Regarding `Cc1nnn(C)c1-c1cnc2c(c1)c(-c1cccc(C(=O)O)c1)cn2[C@@H](C)c1ccccn1` [P-0449, (S)-3-(5-(1,4-dimethyl-1H-1,2,3-triazol-5-yl)-1-(1-(pyridin-2-yl)ethyl)-1H-pyrrolo[2,3-b]pyridin-3-yl)benzoic acid], the IC50 was 0.1 to 1000 nM.
